22 molecules from patent US10472395B2, “Cyclic peptide analogs and conjugates thereof” (Sirenas LLC, priority 2015, dated 2019) can be followed below.

Numbered stars: 1 amine (or outer) side, 2 acyl side, 3 side chain; on linkers, the order of the positions; unused ones are H or OH. Bridge positions count the residues as written; N and C are the ends. Square brackets hold non-standard residues; d marks the D form. Peptide text beside a SMILES is read from it. ξ: configuration not given here. X4 = C/C=C(\C)[C@@H](N[*:1])[C@@H](C)[C@H](O)C/C=C(\C)C(=O)O[C@H](CC(C)C)C(=O)[*:2]; X3 = C/C=C(\C)[C@@H](O[*:2])[C@@H](C)[C@@H](O)C/C=C(\C)C(=O)[*:1]; X10 = C/C(=C\CCCCO[*:2])C(=O)[*:1]; X11 = C/C(=C\CCO[*:2])C(=O)[*:1]; X9 = C/C(=C\CCCO[*:2])C(=O)[*:1]; dNMeF = CN[C@H](Cc1ccccc1)C(=O)O; Ile(3ξ) = CCC(C)[C@H](N)C(=O)O; dHica = CC(C)C[C@@H](O)C(=O)O; dHiv = CC(C)[C@@H](O)C(=O)O; NMeA = CN[C@@H](C)C(=O)O; dAbu = CC[C@@H](N)C(=O)O; dNMeA = CN[C@H](C)C(=O)O; Abu = CC[C@H](N)C(=O)O; Aib = CC(C)(N)C(=O)O; Sar = CNCC(=O)O A value given as a limit tells only on which side of the number the result lay.

One assay relates to BT-474 human mammary gland ductal carcinoma cells. The assay is described as follows: Inhibitory response of test compounds against BT-474 cells (Cell Titer-Glo, 72 h). The assay is classed as cell-based.
Settings: not given
On the procedure: (§1) BT-474 human mammary gland ductal carcinoma cells were seeded in a clear polystyrene 96-well microculture plate (Corning® Costar® 96-well flat bottom plate, Cat.#3997) in a total volume of 90 μL/well. After 24 hours of incubation in a humidified incubator at 37° C. with 5% CO2 and 95% air, 10 μL of 10×, serially diluted test agents in growth medium were added to each well (10 pt dose response curve, highest concentration 10 μM of test agent). After 72 hours of culture in a humidified incubator at 37° C., in an atmosphere of 5% CO2 and 95% air, the plated cells and Cell Titer-Glo® (Promega G7571) reagents were brought to room temperature to equilibrate for 30 minutes. 100 μL of Cell Titer-Glo® reagent was added to each well. The plate was shaken for two minutes and then left to equilibrate for ten minutes. The media/Cell Titer-Glo® reagent was transferred to a white polystyrene 96-well microculture plate (Corning® Costar® 96-well flat bottom plate, Cat.#3917) before reading luminescence on a Tecan GENios microplate reader.
(§2) Percent inhibition of cell growth was calculated relative to untreated control wells. The IC50 value for the test agents was determined using Prism 6.05 by curve-fitting of the data using the following four parameter-logistic equation:
(§3) [formula] where Top is the maximal % of control absorbance, Bottom is the minimal % of control absorbance at the highest agent concentration, Y is the % of control absorbance, X is the agent concentration, IC50 is the concentration of agent that inhibits cell growth by 50% compared to the control cells, and n is the slope of the curve.
(In general: ATP-based viability assays read luminescence as a measure of living cells.)
The term IC50 denotes the concentration at which inhibition is half-maximal. The low end stands for higher potency, the high end for lower potency. For `C/C=C(\C)[C@H]1OC(=O)[C@@H](C)NC(=O)[C@H]([C@H](C)CC)NC(=O)CN(C)C(=O)[C@@H](Cc2ccccc2)N(C)C(=O)[C@H](C)NC(=O)[C@@H](CC(C)C)OC(=O)/C(C)=C/C[C@H](OC(=O)NCCCOCCOCCOCCCNC(=O)c2ccc(/C(C)=N\NC(=O)CCCCCN3C(=O)C=CC3=O)cc2)[C@@H]1C` [Compound L13], the IC50 was in the range of 0.02 to 0.2 µM.

The same assay, now with this note: Homo sapiens.
Turning to `CCC(C)[C@@H]1NC(=O)CN(C)C(=O)[C@@H](Cc2ccccc2)N(C)C(=O)[C@H](C)NC(=O)[C@@H](CC(C)C)OC(=O)/C(C)=C/CCCOC(=O)[C@H](C)NC1=O` (some centres unmarked) [Compound 4] ([dHica]A[dNMeF][Sar][Ile(3ξ)]A; linker N-C via X9), the IC50 was > 10 µM.

`CCC(C)[C@@H]1NC(=O)CN(C)C(=O)[C@@H](Cc2ccccc2)N(C)C(=O)[C@H](C)NC(=O)[C@@H](CC(C)C)OC(=O)/C(C)=C/CCCOC(=O)[C@@H](C)NC1=O` (some centres unmarked) [Compound 5] ([dHica]A[dNMeF][Sar][Ile(3ξ)][dA]; linker N-C via X9): the IC50 was > 10 µM.

Take `CCC(C)[C@@H]1NC(=O)CN(C)C(=O)[C@@H](Cc2ccccc2)N(C)C(=O)[C@H](C)NC(=O)[C@@H](CC(C)C)OC(=O)/C(C)=C/CCCOC(=O)[C@H](C)N(C)C1=O` (some centres unmarked) [Compound 9] ([dHica]A[dNMeF][Sar][Ile(3ξ)][NMeA]; linker N-C via X9): the IC50 was > 10 µM.

`CCC(C)[C@@H]1NC(=O)CN(C)C(=O)[C@@H](Cc2ccccc2)N(C)C(=O)[C@H](C)NC(=O)[C@@H](CC(C)C)OC(=O)/C(C)=C/CCCOC(=O)[C@@H](C)N(C)C1=O` (some centres unmarked) [Compound 10] ([dHica]A[dNMeF][Sar][Ile(3ξ)][dNMeA]; linker N-C via X9): the IC50 was > 10 µM.

Take `CCC(C)[C@@H]1NC(=O)CN(C)C(=O)[C@@H](Cc2ccccc2)N(C)C(=O)[C@H](C)NC(=O)[C@@H](CC(C)C)OC(=O)/C(C)=C/CCCOC(=O)[C@H](CCCCNC(=O)OC(C)(C)C)NC1=O` (some centres unmarked) [Compound 11]: the IC50 was > 10 µM.

For the molecule `CCC(C)[C@@H]1NC(=O)CN(C)C(=O)[C@@H](Cc2ccccc2)N(C)C(=O)[C@H](C)NC(=O)[C@@H](CC(C)C)OC(=O)/C(C)=C/CCOC(=O)[C@@H](C)NC1=O` (some centres unmarked) [Compound 12] ([dHica]A[dNMeF][Sar][Ile(3ξ)][dA]; linker N-C via X11), the IC50 is > 10 µM.

For `CCC(C)[C@@H]1NC(=O)CN(C)C(=O)[C@@H](Cc2ccccc2)N(C)C(=O)[C@H](C)NC(=O)[C@@H](CC(C)C)OC(=O)/C(C)=C/CCCCOC(=O)[C@@H](C)NC1=O` (some centres unmarked) [Compound 13] ([dHica]A[dNMeF][Sar][Ile(3ξ)][dA]; linker N-C via X10), the IC50 was > 10 µM.

As to `CCC(C)[C@@H]1NC(=O)CN(C)C(=O)[C@@H](Cc2ccccc2)N(C)C(=O)[C@H](C)NC(=O)[C@@H](CC(C)C)OC(=O)/C(C)=C/CCCCOC(=O)[C@@H](C)N(C)C1=O` (some centres unmarked) [Compound 14] ([dHica]A[dNMeF][Sar][Ile(3ξ)][dNMeA]; linker N-C via X10), the IC50 is > 10 µM.

`CCC(C)[C@@H]1NC(=O)CN(C)C(=O)[C@@H](Cc2ccccc2)N(C)C(=O)[C@H](C)NC(=O)[C@@H](CC(C)C)OC(=O)/C(C)=C/CCCCOC(=O)[C@H](C)NC1=O` (some centres unmarked) [Compound 17] ([dHica]A[dNMeF][Sar][Ile(3ξ)]A; linker N-C via X10) came in with an IC50 of 0.2 to 10 µM.

Consider `C/C=C(\C)[C@H]1NC(=O)[C@@H](C)NC(=O)[C@H](C(C)CC)NC(=O)CN(C)C(=O)[C@@H](Cc2ccccc2)N(C)C(=O)[C@H](C)NC(=O)[C@@H](CC(C)C)OC(=O)/C(C)=C/C[C@@H](O)[C@@H]1C` (some centres unmarked) [Compound 19] (cyclo(A[dNMeF][Sar][Ile(3ξ)][dA][X4])), for which the IC50 was > 10 µM.

`C/C=C(\C)[C@H]1OC(=O)[C@@H](C)NC(=O)[C@H](C(C)CC)NC(=O)CN(C)C(=O)[C@@H](Cc2ccccc2)N(C)C(=O)[C@H](C)NC(=O)[C@@H](CC(C)C)OC(=O)/C(C)=C/C[C@H](O)[C@H]1C` (some centres unmarked) [Compound 20] displayed an IC50 of 0.2 to 10 µM.

On to `C/C=C(\C)[C@H]1OC(=O)[C@@H](C)NC(=O)[C@H](C(C)CC)NC(=O)CN(C)C(=O)[C@@H](Cc2ccc(Cl)cc2)N(C)C(=O)[C@H](C)NC(=O)[C@@H](CC(C)C)OC(=O)/C(C)=C/C[C@H](O)[C@@H]1C` (some centres unmarked) [Compound 21], for which the IC50 is < 0.02 µM.

In the case of `CCC(C)[C@@H]1NC(=O)CN(C)C(=O)[C@@H](Cc2ccccc2)N(C)C(=O)[C@H](C)NC(=O)[C@@H](CC(C)C)OC(=O)/C(C)=C/CCCOC(=O)[C@H](CCCCN)NC1=O` (some centres unmarked) [Compound 60] ([dHica]A[dNMeF][Sar][Ile(3ξ)]K; linker N-C via X9), the IC50 is > 10 µM.

As for `C/C=C(\C)[C@H]1OC(=O)[C@@H](C)NC(=O)[C@H]([C@H](C)CC)NC(=O)CN(C)C(=O)[C@@H](Cc2ccc(Cl)cc2)N(C)C(=O)[C@H](C)NC(=O)[C@@H](CC(C)C)OC(=O)/C(C)=C/C[C@H](OCSC)[C@@H]1C` [Compound 61], the IC50 is < 0.02 µM.

As to `C/C=C(\C)[C@H]1OC(=O)[C@@H](C)NC(=O)[C@H](C(C)CC)NC(=O)CN(C)C(=O)[C@@H](Cc2ccccc2)N(C)C(=O)[C@H](C)NC(=O)[C@@H](CC(C)C)NC(=O)/C(C)=C/C[C@H](O)[C@@H]1C` (stereo partly drawn) [Compound 63] ([dL]A[dNMeF][Sar][Ile(3ξ)][dA]; linker N-C via X3), the IC50 was < 0.02 µM.

In the case of `CCC(C)[C@@H]1NC(=O)CN(C)C(=O)[C@@H](Cc2ccccc2)N(C)C(=O)[C@H](C)NC(=O)[C@@H](CC(C)C)OC(=O)/C(C)=C/CCCCOC(=O)[C@@H](CC)NC1=O` (some centres unmarked) [Compound 77] ([dHica]A[dNMeF][Sar][Ile(3ξ)][dAbu]; linker N-C via X10), the IC50 was > 10 µM.

On to `CCC(C)[C@@H]1NC(=O)CN(C)C(=O)[C@@H](Cc2ccccc2)N(C)C(=O)[C@H](C)NC(=O)[C@@H](CC(C)C)OC(=O)/C(C)=C/CCCCOC(=O)[C@H](CC)NC1=O` (some centres unmarked) [Compound 78] ([dHica]A[dNMeF][Sar][Ile(3ξ)][Abu]; linker N-C via X10), for which the IC50 was in the range of 0.2 to 10 µM.

`CCC(C)[C@@H]1NC(=O)CN(C)C(=O)[C@@H](Cc2ccccc2)N(C)C(=O)[C@H](C)NC(=O)[C@@H](CC(C)C)OC(=O)/C(C)=C/CCCCOC(=O)CNC1=O` (some centres unmarked) [Compound 79] ([dHica]A[dNMeF][Sar][Ile(3ξ)]G; linker N-C via X10): the IC50 was > 10 µM.

`CCC(C)[C@@H]1NC(=O)CN(C)C(=O)[C@@H](Cc2ccccc2)N(C)C(=O)[C@H](C)NC(=O)[C@@H](C(C)C)OC(=O)/C(C)=C/CCCCOC(=O)[C@@H](CC)NC1=O` (some centres unmarked) [Compound 80] ([dHiv]A[dNMeF][Sar][Ile(3ξ)][dAbu]; linker N-C via X10): the IC50 is > 10 µM.

With `CCC(C)[C@@H]1NC(=O)CN(C)C(=O)[C@@H](Cc2ccccc2)N(C)C(=O)[C@H](C)NC(=O)[C@@H](C(C)C)OC(=O)/C(C)=C/CCCCOC(=O)C(C)(C)NC1=O` (some centres unmarked) [Compound 81] ([dHiv]A[dNMeF][Sar][Ile(3ξ)][Aib]; linker N-C via X10), the IC50 was 0.2 to 10 µM.

`C/C=C(\C)[C@H]1OC(=O)[C@@H](C)NC(=O)[C@H]([C@H](C)CC)NC(=O)CN(C)C(=O)[C@@H](Cc2ccc(Cl)cc2)N(C)C(=O)[C@H](CCCCNC(=O)c2ccc(C(C)=O)cc2)NC(=O)[C@@H](CC(C)C)OC(=O)/C(C)=C/CC[C@@H]1C` [Compound 121] came in with an IC50 of 0.2 to 10 µM.

Still in this assay, the particulars now being: Homo sapiens, 72 h, Cell Titer-Glo.
`C/C=C(\C)[C@H]1OC(=O)[C@@H](C)NC(=O)[C@H](C(C)CC)NC(=O)CN(C)C(=O)[C@@H](Cc2ccccc2)N(C)C(=O)[C@H](C)NC(=O)[C@@H](CC(C)C)OC(=O)/C(C)=C/C[C@H](O)[C@H]1C` (some centres unmarked) [Compound 20] yielded an IC50 of 0.389 µM.

The same assay, now with this note: Homo sapiens, 72 h, Cell Titer-Glo, highest concentration 10 μM.
As for `C/C=C(\C)[C@H]1NC(=O)[C@@H](C)NC(=O)[C@H](C(C)CC)NC(=O)CN(C)C(=O)[C@@H](Cc2ccccc2)N(C)C(=O)[C@H](C)NC(=O)[C@@H](CC(C)C)OC(=O)/C(C)=C/C[C@@H](O)[C@@H]1C` (some centres unmarked) [Compound 19] (cyclo(A[dNMeF][Sar][Ile(3ξ)][dA][X4])), the IC50 was > 10 µM.

In a further assay the test system is HCC1954 cells. Nature of the assay: Inhibitory response of test compounds against HCC1954 cells (method analogous to BT-474). The assay is classed as cell-based. To be noted: Homo sapiens. How it is done: as §1, §2, §3
Inhibitory response of test compounds against HCC1954 cells was determined using a method analogous to that used for BT-474 cells.
With `C/C=C(\C)[C@H]1OC(=O)[C@@H](C)NC(=O)[C@H](C(C)CC)NC(=O)CN(C)C(=O)[C@@H](Cc2ccc(Cl)cc2)N(C)C(=O)[C@H](C)NC(=O)[C@@H](CC(C)C)OC(=O)/C(C)=C/C[C@H](O)[C@@H]1C` (some centres unmarked) [Compound 21], the IC50 was < 0.02 µM.

Consider `C/C=C(\C)[C@H]1OC(=O)[C@@H](C)NC(=O)[C@H](C(C)CC)NC(=O)CN(C)C(=O)[C@@H](Cc2ccccc2)N(C)C(=O)[C@H](C)NC(=O)[C@@H](CC(C)C)NC(=O)/C(C)=C/C[C@H](O)[C@@H]1C` (stereo partly drawn) [Compound 63] ([dL]A[dNMeF][Sar][Ile(3ξ)][dA]; linker N-C via X3), for which the IC50 lay within 0.02 to 0.2 µM.
